In patent publication US20110288116A1, “IAP INHIBITORS” (TETRALOGIC PHARMACEUITCAL CORPORATION, priority 2008, published 2011):

Target: T1, cIAP-1 BIR-3 (Homo sapiens, UniProt Q13490)
T1 construct: "cIAP-1 BIR-3"
Experiment: Fluorescence polarization binding to cIAP-1 BIR-3 (competition with AbuRPF-K(5-Fam)-NH2)
Details: cells marked (cIAP-1): cIAP-1 BIR-3; reported as range class
Procedure: The binding affinities of the compounds are reported as a Kd value. Briefly, various concentrations of test peptides were mixed with 5 nM of the fluorescently labeled peptide (i.e., a mutated N-terminal Smac peptide—AbuRPF-K(5-Fam)-NH2) and 40 nM of the BIR3 for 15 min at RT in […] of 0.1M Potassium Phosphate buffer, pH 7.5 containing […] bovine g-globulin. Following incubation, the polarization values (mP) were measured on a Victor2V (available from PerkinElmer Life Sciences) using a 485 nm excitation filter and a 520 nm emission filter. The reported Kd values are supplied as ranges (A=<0.1 μM, B=0.1 μM to C=>1 μM to 10 μM, D=>10 μM) and, unless otherwise indicated, are the Kd for XIAP BIR-3.

T1 sequence (Q13490 266-343 limits assumed): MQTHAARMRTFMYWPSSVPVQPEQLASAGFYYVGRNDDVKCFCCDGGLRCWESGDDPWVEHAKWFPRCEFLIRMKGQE

Kd, > 0.1 µM:
CN[C@@H](C)C(=O)N[C@@H](COC)C(=O)N1CC[C@@H](O)[C@H]1Cc1c(-c2ccc(F)cc2)[nH]c2ccccc12 [HHH]
CN[C@@H](C)C(=O)N[C@H](C(=O)N1C[C@@H](O)C[C@H]1C[C@H]1CN(C(C)=O)c2ccccc21)[C@@H](C)OC [WWW]
CCN[C@@H](C)C(=O)N[C@H](C(=O)N1CC[C@H](OC)[C@H]1Cc1c(Cl)[nH]c2cc(F)ccc12)C(C)C [U′]
CC[C@H](NC)C(=O)N[C@H](C(=O)N1CC[C@H](OC)[C@H]1Cc1c(Cl)[nH]c2cc(F)ccc12)C(C)C [V′]
CN[C@H](C(=O)N[C@H](C(=O)N1CC[C@@H](O)[C@H]1Cc1c[nH]c2ccccc12)C(C)C)C1CC1 [TT′]
AAAA
CCN[C@@H](C)C(=O)N[C@@H](COC)C(=O)N1CC[C@@H](O)[C@H]1Cc1c(-c2ccc(F)cc2)[nH]c2ccccc12 [FFF]
CCc1ccc2c(c1)[C@@H](C[C@@H]1C[C@H](O)CN1C(=O)[C@@H](NC(=O)[C@H](C)NC)C1CCCCC1)CN2C(C)=O [BBBB]
CN[C@H](C(=O)N[C@H](C(=O)N1CC[C@@H](O)[C@H]1Cc1c[nH]c2ccccc12)C1CC1)C1CC1 [QQ′]

Kd, < 0.1 µM:
CC[C@H](NC)C(=O)N[C@H](C(=O)N1CC[C@@H](O)[C@H]1Cc1c(-c2ccc(F)cc2)[nH]c2ccccc12)[C@@H](C)O [DDD]
CC[C@H](NC)C(=O)N[C@H](C(=O)N1CC[C@H](O)[C@H]1Cc1c(Cl)[nH]c2cc(F)ccc12)C(C)C [Z′]
CN[C@@H](C)C(=O)N[C@H](C(=O)N1CC[C@H](O)[C@H]1Cc1c(Cl)[nH]c2cc(F)ccc12)[C@@H](C)OC [CC′, N-{1-[2-(2-Chloro-6-fluoro-1H-indol-3-ylmethyl)-3-hydroxy-pyrrolidine-1-carbonyl]-2-methoxy-propyl}-2-methylamino-propionamide]
CN[C@@H](C)C(=O)N[C@H](C(=O)N1CC[C@@H](O)[C@H]1Cc1c(-c2ccc(F)cc2)[nH]c2ccccc12)[C@@H](C)O [EEE]
CC[C@H](NC)C(=O)N[C@H](C(=O)N1CC[C@H](O)[C@H]1Cc1c(Cl)[nH]c2cc(F)ccc12)[C@@H](C)OC [BB′]
CN[C@@H](C)C(=O)N[C@H](C(=O)N1CC[C@@H](O)[C@H]1Cc1c[nH]c2ccccc12)C1CC1 [VV′]
CCN[C@@H](C)C(=O)N[C@H](C(=O)N1CC[C@@H](O)[C@H]1Cc1c(-c2ccc(F)cc2)[nH]c2ccccc12)[C@@H](C)O [CCC]
CN[C@@H](C)C(=O)N[C@H](C(=O)N1CC[C@H](O)[C@H]1Cc1c[nH]c2ncccc12)[C@@H](C)OC [BB]
CN[C@@H](C)C(=O)N[C@H](C(=O)N1CC[C@H](O)[C@H]1Cc1c(Cl)[nH]c2cc(F)ccc12)C(C)(C)C [Y′]
CCN[C@@H](C)C(=O)N[C@H](C(=O)N1CC[C@H](O)[C@H]1Cc1c[nH]c2ncccc12)C(C)C [EE]
CCN[C@@H](C)C(=O)N[C@H](C(=O)N1CC[C@H](O)[C@H]1Cc1c[nH]c2ncccc12)[C@@H](C)OC [CC]
CN[C@@H](C)C(=O)N[C@H](C(=O)N1CC[C@@H](O)[C@H]1Cc1c[nH]c2ccccc12)C(C)C [XX′]
CN[C@H](C(=O)N[C@H](C(=O)N1CC[C@@H](O)[C@H]1Cc1c[nH]c2ccccc12)C(C)(C)C)C1CC1 [MM′]
CCN[C@@H](C)C(=O)N[C@H](C(=O)N1CC[C@@H](O)[C@H]1Cc1c[nH]c2ccccc12)[C@@H](C)OC [GG′]
CCN[C@@H](C)C(=O)N[C@H](C(=O)N1CC[C@@H](O)[C@H]1Cc1c[nH]c2ccccc12)C(C)(C)C [OO′]
CCN[C@@H](C)C(=O)N[C@H](C(=O)N1CC[C@@H](O)[C@H]1Cc1c(-c2ccc(F)cc2)[nH]c2ccccc12)[C@@H](C)OC [LLL]
CC[C@H](NC)C(=O)N[C@H](C(=O)N1CC[C@@H](O)[C@H]1Cc1c(-c2ccc(F)cc2)[nH]c2ccccc12)[C@@H](C)OC [MMM]
CN[C@@H](C)C(=O)N[C@H](C(=O)N1C[C@@H](O)C[C@H]1C(=O)c1c[nH]c2cc(F)ccc12)C(C)C [QQQ]
CCN[C@@H](C)C(=O)N[C@H](C(=O)N1CC[C@@H](O)[C@H]1Cc1c[nH]c2ccccc12)C1CCCCC1 [JJ′]
CN[C@@H](C)C(=O)N[C@H](C(=O)N1C[C@@H](O)C[C@H]1C[C@@H]1CN(C(C)=O)c2ccccc21)C1CCCCC1 [TTT]
CN[C@@H](C)C(=O)N[C@H](C(=O)N1CC[C@H](O)[C@H]1Cc1c[nH]c2ncccc12)C(C)C [DD]
CCc1ccc2c(c1)[C@H](C[C@@H]1C[C@H](O)CN1C(=O)[C@@H](NC(=O)[C@H](C)NC)[C@@H](C)OC)CN2C(C)=O [ZZZ]
CN[C@@H](C)C(=O)N[C@H](C(=O)N1CC[C@H](O)[C@H]1Cc1c[nH]c2ncccc12)C(C)(C)C [Z, N-{1-[3-Hydroxy-2-(1H-pyrrolo[2,3-b]pyridin-3-ylmethyl)-pyrrolidine-1-carbonyl]-2,2-dimethyl-propyl}-2-methylamino-propionamide]
CC[C@H](NC)C(=O)N[C@H](C(=O)N1CC[C@@H](O)[C@H]1Cc1c[nH]c2ccccc12)C(C)C [UU′]
CN[C@@H](C)C(=O)N[C@H](C(=O)N1C[C@@H](O)C[C@H]1C(=O)c1c[nH]c2cc(F)ccc12)C(C)(C)C [PPP, N-{1-[2-(6-Fluoro-1H-indole-3-carbonyl)-4-hydroxy-pyrrolidine-1-carbonyl]-2,2-dimethyl-propyl}-2-methylamino-propionamide]
CCN[C@@H](C)C(=O)N[C@H](C(=O)N1CC[C@H](O)[C@H]1Cc1c[nH]c2ncccc12)C(C)(C)C [AA]
CCN[C@@H](C)C(=O)N[C@H](C(=O)N1CCC[C@H]1Cc1cn(C)c2ncccc12)C(C)(C)C [W]
CC[C@H](NC)C(=O)N[C@H](C(=O)N1CC[C@@H](O)[C@H]1Cc1c[nH]c2ccccc12)C1CC1 [RR′]
CN[C@@H](C)C(=O)N[C@H](C(=O)N1CC[C@@H](O)[C@H]1Cc1c[nH]c2ccccc12)C(C)(C)C [PP′]
CCN[C@@H](C)C(=O)N[C@H](C(=O)N1CC[C@@H](O)[C@H]1Cc1c[nH]c2ccccc12)[C@@H](C)O [DD′]
CCN[C@@H](C)C(=O)N[C@H](C(=O)N1CC[C@@H](O)[C@H]1Cc1c(-c2ccc(F)cc2)[nH]c2ccccc12)C(C)C [ZZ′]
CC[C@H](NC)C(=O)N[C@H](C(=O)N1CC[C@@H](O)[C@H]1Cc1c[nH]c2ccccc12)C(C)(C)C [NN′]
